Measured values from ChEMBL document CHEMBL1201862, “PubChem BioAssay data set” (2004).
Activity calls are given as the source filed them.

Columns and labels:
[1] = tested on: P388/ADR; test: cells; type: functional; details: Mus musculus
[2] = tested on: SN12K1; test: cells; type: functional; details: Homo sapiens
[3] = tested on: P388; test: cells; type: functional; details: Mus musculus
[4] = target: Voltage-dependent T-type calcium channel subunit alpha-1H (Homo sapiens, UniProt O95180); type: functional;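 note: channel activity triggered by adding a high calcium stimulation buffer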
[5] = CRF-BP/CRF-R2 complex antagonists, dose response, cell-based, uHTS hits, 384-well (AID 651639); type: functional, Homo sapiens; details: read-out: IC50_Mean
[6] = target: T1, Corticotropin-releasing factor receptor 2/Corticotropin-releasing factor-binding protein (Homo sapiens, UniProt P24387+Q13324); test: activators of CRF receptor 2 with binding protein – uHTS hits, confirmation (AID 602473); type: functional; details: read-out: EC50_Mean
T1 sequence (Q13324 whole entry): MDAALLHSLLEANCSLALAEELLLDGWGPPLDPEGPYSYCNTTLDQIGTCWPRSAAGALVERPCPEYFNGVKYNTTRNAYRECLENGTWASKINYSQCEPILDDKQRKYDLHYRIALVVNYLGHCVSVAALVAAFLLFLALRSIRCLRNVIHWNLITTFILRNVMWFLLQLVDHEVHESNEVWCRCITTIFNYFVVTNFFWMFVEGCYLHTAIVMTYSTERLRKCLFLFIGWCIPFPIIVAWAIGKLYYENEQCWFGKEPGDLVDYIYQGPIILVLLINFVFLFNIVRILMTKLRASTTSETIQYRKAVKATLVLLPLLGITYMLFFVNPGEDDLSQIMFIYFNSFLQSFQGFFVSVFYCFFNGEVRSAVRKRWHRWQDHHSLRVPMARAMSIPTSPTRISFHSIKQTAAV
T1 sequence (P24387 whole entry): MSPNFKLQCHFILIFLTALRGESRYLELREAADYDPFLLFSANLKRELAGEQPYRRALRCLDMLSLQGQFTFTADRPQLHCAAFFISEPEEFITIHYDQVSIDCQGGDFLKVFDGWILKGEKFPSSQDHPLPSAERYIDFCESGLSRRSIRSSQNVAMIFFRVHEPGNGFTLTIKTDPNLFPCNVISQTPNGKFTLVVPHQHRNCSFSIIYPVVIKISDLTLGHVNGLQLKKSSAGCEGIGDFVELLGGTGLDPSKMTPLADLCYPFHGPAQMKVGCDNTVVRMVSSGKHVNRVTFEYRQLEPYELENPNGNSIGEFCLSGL

[7] = target: T1, Corticotropin-releasing factor receptor 2/Corticotropin-releasing factor-binding protein; test: Dose Response confirmation of uHTS hits for small molecule antagonists of the CRF-binding protein and CRF-R2 receptor complex.; type: functional; details: read-out: IC50_Mean
[8] = target: T2, Heat shock factor protein 1 (Mus musculus, UniProt P38532); test: inhibition of MG132-induced HSE-luciferase signal, confirmation, cell-based, NIH3T3, luminescence, dose retest (AID 2382); type: functional;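 note: NIH3T3 fibroblasts with HSF1-driven luciferase reporter stressed by proteasome inhibitor MG132; luminescence from HSF1-driven luciferase expression after 8 hours of MG132 stress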
T2 sequence (P38532 whole entry): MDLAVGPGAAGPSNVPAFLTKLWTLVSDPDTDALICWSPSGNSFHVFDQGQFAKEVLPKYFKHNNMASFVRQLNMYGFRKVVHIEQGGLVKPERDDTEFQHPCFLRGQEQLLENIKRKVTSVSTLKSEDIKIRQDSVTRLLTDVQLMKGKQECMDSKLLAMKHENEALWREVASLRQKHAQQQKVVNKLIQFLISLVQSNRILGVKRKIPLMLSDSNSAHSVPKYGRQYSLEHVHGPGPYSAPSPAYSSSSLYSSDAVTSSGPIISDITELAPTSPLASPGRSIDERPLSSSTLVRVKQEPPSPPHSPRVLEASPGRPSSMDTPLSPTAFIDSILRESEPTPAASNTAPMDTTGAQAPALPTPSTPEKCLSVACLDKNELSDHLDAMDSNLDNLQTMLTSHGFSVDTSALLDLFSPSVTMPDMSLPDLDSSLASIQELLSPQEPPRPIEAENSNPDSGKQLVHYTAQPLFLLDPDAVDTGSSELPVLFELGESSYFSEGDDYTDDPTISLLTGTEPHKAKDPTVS

[9] = A Cell Based Secondary Assay To Explore Cytotoxicity of Compounds that Sensitize Mycobacterium Tuberculosis to Beta-Lactam Antibiotics.; type: functional
[10] = target: Large T antigen (Simian virus 40, UniProt P03070); type: functional, Betapolyomavirus macacae;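 note: Confirmatory-stage PubChem screen for compounds that inhibit SV40 T antigen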
[11] = target: Genome polyprotein (dengue virus type 2, UniProt P29990); test: Dengue-2 NS5 methyltransferase inhibitors, primary screen, biochemical, confirmation dose response (AID 588689); type: functional
[12] = target: Glucose-6-phosphate 1-dehydrogenase (Homo sapiens, UniProt P11413); test: human G6PD enzyme inhibitors, dose response, selectivity assay for P. falciparum G6PD inhibitor project, biochemical, fluorescence (AID 504792); type: functional
[13] = target: T3, Aminopeptidase N (Plasmodium falciparum FcB1/Columbia, UniProt O96935); test: P. falciparum M1AAP inhibitors, biochemical, fluorogenic H-Leu-NHMec substrate, 1536-well (AID 1445); design: species or system Plasmodium falciparum 3D7, 3D7
T3 sequence (O96935 whole entry): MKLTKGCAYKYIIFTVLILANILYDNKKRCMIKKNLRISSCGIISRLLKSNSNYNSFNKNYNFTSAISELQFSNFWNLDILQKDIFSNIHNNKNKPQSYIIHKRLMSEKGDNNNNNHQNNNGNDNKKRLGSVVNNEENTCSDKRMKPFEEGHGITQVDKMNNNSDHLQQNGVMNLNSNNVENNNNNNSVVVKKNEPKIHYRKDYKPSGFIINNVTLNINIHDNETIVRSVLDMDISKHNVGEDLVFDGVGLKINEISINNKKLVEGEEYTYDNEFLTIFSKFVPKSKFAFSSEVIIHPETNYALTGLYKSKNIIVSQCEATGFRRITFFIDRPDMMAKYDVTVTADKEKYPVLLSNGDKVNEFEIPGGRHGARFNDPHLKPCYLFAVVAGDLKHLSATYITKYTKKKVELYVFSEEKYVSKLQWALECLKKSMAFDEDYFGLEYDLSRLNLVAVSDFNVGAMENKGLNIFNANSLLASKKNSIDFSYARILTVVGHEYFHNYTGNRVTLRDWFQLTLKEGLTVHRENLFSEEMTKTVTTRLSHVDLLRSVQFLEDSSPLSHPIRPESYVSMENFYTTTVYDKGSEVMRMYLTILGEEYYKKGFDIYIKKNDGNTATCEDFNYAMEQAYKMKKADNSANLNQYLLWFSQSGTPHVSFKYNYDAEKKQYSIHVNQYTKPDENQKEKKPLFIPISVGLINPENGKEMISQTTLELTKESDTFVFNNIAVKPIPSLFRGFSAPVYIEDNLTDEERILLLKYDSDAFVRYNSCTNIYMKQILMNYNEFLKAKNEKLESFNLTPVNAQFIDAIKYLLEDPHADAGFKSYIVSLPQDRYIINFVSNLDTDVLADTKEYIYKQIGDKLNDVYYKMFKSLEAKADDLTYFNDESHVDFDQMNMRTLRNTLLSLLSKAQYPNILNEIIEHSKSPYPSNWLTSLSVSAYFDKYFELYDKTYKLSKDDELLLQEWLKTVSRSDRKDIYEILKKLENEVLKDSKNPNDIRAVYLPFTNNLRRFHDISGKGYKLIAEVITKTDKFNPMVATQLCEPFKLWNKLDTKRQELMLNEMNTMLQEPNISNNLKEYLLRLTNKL

[14] = HEp-2 cell cytotoxicity, dose response, cytotoxicity control for RSV inhibitor project, HTS (AID 2410); type: functional; details: human respiratory syncytial virus
[15] = tested on: H9c2; test: cells; type: functional, cell-based; details: Rattus norvegicus, H9c2, Myocardium;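 note: confirmatory concentration-response retest of ultra-high-throughput screening hits for modulation of myocardial damage; cell death induced by hydrogen peroxide oxidative stress; compound pretreatment for 60 min then peroxide exposure for 2 h; potency is for protecting the cells against peroxide damage rather than for killing them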
[16] = target: T4, Cytochrome P450 1A2 (Homo sapiens, UniProt P05177);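 note: PubChem cytochrome P450 panel assay, CYP1A2 panel member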
T4 sequence (P05177 whole entry): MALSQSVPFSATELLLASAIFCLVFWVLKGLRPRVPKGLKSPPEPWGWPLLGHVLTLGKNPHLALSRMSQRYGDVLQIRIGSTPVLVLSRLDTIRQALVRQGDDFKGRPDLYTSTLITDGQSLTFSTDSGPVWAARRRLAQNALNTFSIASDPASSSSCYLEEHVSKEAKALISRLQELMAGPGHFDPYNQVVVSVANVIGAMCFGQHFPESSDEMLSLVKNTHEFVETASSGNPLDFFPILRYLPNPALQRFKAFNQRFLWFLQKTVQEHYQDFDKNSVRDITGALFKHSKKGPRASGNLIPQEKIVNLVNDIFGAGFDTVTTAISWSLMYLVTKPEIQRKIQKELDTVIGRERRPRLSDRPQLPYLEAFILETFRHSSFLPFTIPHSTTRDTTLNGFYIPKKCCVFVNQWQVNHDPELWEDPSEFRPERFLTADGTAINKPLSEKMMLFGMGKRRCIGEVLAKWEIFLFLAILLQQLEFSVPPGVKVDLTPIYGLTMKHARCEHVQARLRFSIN

[17] = target: Cytochrome P450 2C9 (Homo sapiens, UniProt P11712)
Sequence of Cytochrome P450 2C9 (P11712 whole entry): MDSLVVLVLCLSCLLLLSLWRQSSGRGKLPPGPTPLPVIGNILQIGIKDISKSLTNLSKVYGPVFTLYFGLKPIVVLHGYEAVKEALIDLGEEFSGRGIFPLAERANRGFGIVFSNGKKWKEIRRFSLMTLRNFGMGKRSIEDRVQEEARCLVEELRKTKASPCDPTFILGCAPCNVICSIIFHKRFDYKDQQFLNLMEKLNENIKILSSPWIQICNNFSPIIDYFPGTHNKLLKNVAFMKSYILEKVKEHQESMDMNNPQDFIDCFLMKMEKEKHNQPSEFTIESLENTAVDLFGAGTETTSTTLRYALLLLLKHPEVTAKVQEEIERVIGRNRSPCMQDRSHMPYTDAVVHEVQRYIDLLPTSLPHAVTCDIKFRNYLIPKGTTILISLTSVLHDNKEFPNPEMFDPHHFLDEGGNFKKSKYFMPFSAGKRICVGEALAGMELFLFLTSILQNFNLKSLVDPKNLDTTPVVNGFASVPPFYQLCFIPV

Sequence of Voltage-dependent T-type calcium channel subunit alpha-1H (O95180 whole entry): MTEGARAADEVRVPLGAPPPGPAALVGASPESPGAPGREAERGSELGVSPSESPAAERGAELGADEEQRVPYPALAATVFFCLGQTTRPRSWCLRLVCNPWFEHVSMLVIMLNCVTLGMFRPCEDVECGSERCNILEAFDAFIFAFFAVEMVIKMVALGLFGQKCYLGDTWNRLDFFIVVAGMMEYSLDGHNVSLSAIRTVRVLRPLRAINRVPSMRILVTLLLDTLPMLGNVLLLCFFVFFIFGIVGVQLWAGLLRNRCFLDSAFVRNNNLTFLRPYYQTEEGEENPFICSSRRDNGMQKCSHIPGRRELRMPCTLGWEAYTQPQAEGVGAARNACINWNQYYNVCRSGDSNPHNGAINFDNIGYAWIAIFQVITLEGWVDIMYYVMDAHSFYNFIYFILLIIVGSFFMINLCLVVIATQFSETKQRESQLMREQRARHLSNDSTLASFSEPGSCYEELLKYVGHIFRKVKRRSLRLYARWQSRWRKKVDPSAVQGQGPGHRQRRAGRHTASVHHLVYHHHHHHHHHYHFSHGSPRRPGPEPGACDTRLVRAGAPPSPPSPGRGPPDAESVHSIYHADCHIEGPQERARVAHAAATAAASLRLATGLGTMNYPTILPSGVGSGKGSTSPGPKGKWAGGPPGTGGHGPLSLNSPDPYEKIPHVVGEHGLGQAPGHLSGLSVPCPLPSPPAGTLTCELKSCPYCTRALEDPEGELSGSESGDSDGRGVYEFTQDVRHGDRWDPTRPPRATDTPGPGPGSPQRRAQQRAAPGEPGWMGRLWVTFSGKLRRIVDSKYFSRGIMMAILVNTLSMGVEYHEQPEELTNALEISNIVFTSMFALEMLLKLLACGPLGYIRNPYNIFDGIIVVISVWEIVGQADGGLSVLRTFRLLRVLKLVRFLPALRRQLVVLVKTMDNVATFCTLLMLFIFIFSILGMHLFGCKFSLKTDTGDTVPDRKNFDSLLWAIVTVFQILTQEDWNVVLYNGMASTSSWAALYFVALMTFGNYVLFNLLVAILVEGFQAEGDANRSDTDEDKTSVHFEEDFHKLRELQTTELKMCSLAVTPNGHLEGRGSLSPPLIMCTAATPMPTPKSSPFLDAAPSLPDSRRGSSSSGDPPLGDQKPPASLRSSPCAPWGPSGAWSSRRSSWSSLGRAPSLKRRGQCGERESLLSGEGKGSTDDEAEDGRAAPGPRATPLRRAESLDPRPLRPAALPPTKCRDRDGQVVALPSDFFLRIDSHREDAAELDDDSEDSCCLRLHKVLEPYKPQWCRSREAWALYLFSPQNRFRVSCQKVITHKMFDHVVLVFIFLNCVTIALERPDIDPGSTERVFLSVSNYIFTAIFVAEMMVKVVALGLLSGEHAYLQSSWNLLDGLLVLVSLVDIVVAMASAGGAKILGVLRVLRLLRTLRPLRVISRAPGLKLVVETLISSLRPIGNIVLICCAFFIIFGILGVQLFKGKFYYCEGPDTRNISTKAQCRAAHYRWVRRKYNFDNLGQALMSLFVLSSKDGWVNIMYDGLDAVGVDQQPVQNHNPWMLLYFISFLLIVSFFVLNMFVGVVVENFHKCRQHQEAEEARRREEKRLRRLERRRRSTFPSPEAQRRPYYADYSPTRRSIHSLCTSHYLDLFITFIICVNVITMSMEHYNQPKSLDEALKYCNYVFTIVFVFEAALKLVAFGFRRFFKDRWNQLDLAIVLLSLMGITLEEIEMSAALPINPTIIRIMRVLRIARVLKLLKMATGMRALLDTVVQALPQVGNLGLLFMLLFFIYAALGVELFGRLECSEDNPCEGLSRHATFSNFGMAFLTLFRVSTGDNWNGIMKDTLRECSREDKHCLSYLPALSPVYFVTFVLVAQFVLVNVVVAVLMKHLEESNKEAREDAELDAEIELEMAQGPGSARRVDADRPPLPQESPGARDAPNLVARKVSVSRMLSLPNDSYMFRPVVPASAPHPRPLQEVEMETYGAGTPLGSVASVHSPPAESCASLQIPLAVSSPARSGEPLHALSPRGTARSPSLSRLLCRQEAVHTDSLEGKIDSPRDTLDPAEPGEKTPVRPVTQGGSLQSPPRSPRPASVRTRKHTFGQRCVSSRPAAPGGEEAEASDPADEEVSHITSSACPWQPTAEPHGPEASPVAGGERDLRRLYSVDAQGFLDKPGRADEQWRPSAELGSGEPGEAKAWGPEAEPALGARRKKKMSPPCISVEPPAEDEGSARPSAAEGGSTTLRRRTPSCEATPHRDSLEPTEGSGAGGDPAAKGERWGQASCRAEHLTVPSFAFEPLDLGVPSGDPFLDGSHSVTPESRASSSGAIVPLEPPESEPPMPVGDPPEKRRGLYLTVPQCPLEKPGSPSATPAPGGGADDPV
Sequence of Large T antigen (P03070 whole entry): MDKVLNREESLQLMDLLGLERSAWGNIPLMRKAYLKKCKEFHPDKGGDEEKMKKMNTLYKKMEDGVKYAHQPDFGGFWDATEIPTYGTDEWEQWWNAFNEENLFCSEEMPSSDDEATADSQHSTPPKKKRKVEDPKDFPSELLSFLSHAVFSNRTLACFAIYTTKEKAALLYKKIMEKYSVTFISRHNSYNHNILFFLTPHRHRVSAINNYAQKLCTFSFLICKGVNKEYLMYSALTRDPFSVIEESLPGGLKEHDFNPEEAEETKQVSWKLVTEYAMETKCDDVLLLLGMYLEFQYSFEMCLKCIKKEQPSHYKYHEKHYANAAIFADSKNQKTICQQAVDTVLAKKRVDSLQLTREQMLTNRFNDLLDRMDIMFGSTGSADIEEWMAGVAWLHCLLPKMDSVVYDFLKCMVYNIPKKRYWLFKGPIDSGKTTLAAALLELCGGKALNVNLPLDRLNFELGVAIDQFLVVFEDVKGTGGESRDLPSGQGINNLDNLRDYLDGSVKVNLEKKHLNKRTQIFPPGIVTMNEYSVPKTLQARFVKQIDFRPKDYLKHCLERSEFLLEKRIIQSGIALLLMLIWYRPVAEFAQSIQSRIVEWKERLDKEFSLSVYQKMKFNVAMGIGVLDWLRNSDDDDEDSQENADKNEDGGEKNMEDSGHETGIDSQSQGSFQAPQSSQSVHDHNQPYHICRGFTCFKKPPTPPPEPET
Sequence of Genome polyprotein (P29990 2492-3391 limits assumed): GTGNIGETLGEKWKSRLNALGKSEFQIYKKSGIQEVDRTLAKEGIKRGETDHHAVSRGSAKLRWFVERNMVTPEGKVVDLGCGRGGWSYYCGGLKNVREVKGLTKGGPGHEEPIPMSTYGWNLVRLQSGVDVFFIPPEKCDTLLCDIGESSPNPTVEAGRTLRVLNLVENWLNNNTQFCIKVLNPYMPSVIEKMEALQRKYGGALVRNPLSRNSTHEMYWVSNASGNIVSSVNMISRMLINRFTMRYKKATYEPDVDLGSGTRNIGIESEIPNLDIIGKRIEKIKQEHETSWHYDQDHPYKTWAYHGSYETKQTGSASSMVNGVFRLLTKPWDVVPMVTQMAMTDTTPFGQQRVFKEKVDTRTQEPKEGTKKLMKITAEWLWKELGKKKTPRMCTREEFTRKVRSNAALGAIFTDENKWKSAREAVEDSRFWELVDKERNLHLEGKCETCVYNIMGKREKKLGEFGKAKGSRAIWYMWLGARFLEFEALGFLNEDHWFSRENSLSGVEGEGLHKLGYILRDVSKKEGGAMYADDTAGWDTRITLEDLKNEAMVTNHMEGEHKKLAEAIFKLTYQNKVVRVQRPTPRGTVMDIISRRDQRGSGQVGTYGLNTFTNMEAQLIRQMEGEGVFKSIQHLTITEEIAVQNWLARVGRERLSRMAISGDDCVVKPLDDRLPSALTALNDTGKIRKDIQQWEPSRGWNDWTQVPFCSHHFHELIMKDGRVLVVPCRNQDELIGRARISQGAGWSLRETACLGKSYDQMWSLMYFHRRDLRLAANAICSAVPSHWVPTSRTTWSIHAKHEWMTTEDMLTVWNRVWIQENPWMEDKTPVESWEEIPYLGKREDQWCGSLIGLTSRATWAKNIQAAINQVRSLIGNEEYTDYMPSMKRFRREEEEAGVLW
Sequence of Glucose-6-phosphate 1-dehydrogenase (P11413 whole entry): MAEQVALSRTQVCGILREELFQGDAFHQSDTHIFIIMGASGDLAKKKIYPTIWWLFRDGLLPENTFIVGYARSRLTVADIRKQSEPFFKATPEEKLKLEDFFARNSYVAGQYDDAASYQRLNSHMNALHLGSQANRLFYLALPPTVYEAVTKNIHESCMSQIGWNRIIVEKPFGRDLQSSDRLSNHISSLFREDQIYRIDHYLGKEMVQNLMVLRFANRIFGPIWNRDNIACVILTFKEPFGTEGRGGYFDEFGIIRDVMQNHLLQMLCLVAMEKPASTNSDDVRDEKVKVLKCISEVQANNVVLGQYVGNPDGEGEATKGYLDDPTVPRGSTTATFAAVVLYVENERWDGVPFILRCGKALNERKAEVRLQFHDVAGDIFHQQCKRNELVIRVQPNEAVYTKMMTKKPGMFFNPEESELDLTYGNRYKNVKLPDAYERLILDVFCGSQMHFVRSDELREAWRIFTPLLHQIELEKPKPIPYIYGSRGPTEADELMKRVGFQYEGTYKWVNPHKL

SMILES: Nc1ccc2c(c1)C1=NNC(=O)CC1C2 (configuration not stated)
- GI50 [1]: > 100 µM (inactive)
- GI50 [2]: > 100 µM (inactive)
- GI50 [3]: > 100 µM (inactive)

SMILES: CSc1cccc(NC(=O)CN(c2ccc(C)cc2C)S(C)(=O)=O)c1
- EC50 [4]: 4.13 µM (active)

SMILES: NC(Cc1ccc([N+](=O)[O-])cc1)=NOC(=O)c1ccc(Br)cc1
- IC50 [5]: 9.44 µM (active)

SMILES: CC1CCCCC1NC(=O)CCCCCn1c(=S)[nH]c2ccsc2c1=O (configuration not stated)
- EC50 [6]: > 53 µM (inactive)
- IC50 [7]: < 0.368 µM (active)
- IC50 [5]: > 20 µM (inactive)

SMILES: Cc1ccc(-n2nc(C)c3c2NC(=O)CSC3c2ccc3c(c2)OCO3)cc1 (configuration not stated)
- EC50 [8]: > 195 µM (not active)
- EC50 [4]: 6.71 µM (active)

SMILES: CNC(=O)c1cccc2c(Nc3ccc(NS(C)(=O)=O)cc3OC)c3cccc(C)c3nc12
- GI50 [1]: 0.0488 µM (active)
- GI50 [2]: < 0.01 µM (active)
- GI50 [3]: < 0.01 µM (active)

SMILES: CC(/C=C(\NC(=O)c1ccccc1)C(=O)N=Nc1c(O)[nH]c2ccc(C)cc12)=C\c1ccccc1
- CC50 [9]: 33.7 µM (active)
- EC50 [8]: 16.1 µM (active)

SMILES: O=C1NC(=O)C(=Cc2ccc(-c3ccccc3[N+](=O)[O-])o2)C(=O)N1
- IC50 [10]: 62.2 µM (active)
- IC50 [11]: 17.8 µM (active)
- IC50 [12]: > 80 µM (inactive)

SMILES: N#Cc1c(NC(=O)CSc2nc(-c3ccco3)cc(C(F)(F)F)n2)sc2c1CCCC2
- CC50 [9]: > 40 µM (active)

SMILES: Cn1c(=S)[nH]c2sc3c(c2c1=O)CCC(C(C)(C)C)C3 (configuration not stated)
- CC50 [9]: 10.7 µM (active)

SMILES: Cc1nn(-c2cc(C(F)(F)F)ccc2Cl)c2nc(C(Cl)(Cl)Cl)nc(O)c12
- EC50 [6]: > 53 µM (inactive)
- IC50 [7]: 5.2 µM (active)
- IC50 [5]: 11.1 µM (active)

SMILES: NS(=O)(=O)c1ccc(N2N=C(c3ccccc3)CC2c2cccc(F)c2)cc1 (configuration not stated)
- IC50 [13]: 47.6 µM (active)

SMILES: O=C(Nc1cccc2ccccc12)N1CCCN(c2c(Cl)cncc2Cl)CC1
- CC50 [9]: > 40 µM (active)

SMILES: CCCCN(CCCC)CP(=O)(c1ccccc1)c1ccccc1
- EC50 [4]: 11.4 µM (active)

SMILES: C/C(N)=C(/C#N)C(=O)COC(=O)c1cc(-c2cccc(Br)c2)nc2ccccc12
- CC50 [14]: 12.2 µM (active)

SMILES: O=C(CS(=O)(=O)Cc1ccccc1)N1CCN(c2cccc(C(F)(F)F)c2)CC1
- IC50 [13]: 105 µM (active)

SMILES: O=C(CCn1nc(-c2ccccc2)c2ccccc2c1=O)N1CCN(c2ccccc2)CC1
- IC50 [15]: > 79 µM (inactive)
- EC50 [4]: 7.63 µM (active)

SMILES: Cc1cccc(-c2nc(CN3CCCC(C(=O)NC4CCCCC4)C3)c(C)o2)c1 (configuration not stated)
- AC50 [16]: 20 µM (inconclusive)
- AC50 [17]: 28.2 µM (inconclusive)
- EC50 [4]: 2.14 µM (active)

SMILES: Cc1ccc(S(=O)(=O)c2nc(NCCN(C)C)sc2Cl)cc1
- IC50 [13]: 12.7 µM (active)

SMILES: Cc1nc2ccccc2c(=O)n1CC(=O)O
- GI50 [1]: > 100 µM (inactive)
- GI50 [2]: > 100 µM (inactive)
- GI50 [3]: > 100 µM (inactive)

SMILES: O=C(c1ccc(-c2ccccc2Cl)s1)N1CCOCC1
- CC50 [14]: > 50 µM (active)

SMILES: O=C(CSc1nc2ccsc2c(=O)n1NC(=O)c1ccccc1)NCc1ccco1
- IC50 [13]: 72.1 µM (active)

SMILES: CC(C)Cc1csc(NC(=O)c2ccc(Cl)cc2)c1C(=O)O
- EC50 [6]: 25.8 µM (active)
- IC50 [7]: 5.06 µM (active)
- IC50 [5]: 17.8 µM (active)

SMILES: C=C1CC(OC)(C(OC)C(=O)N[C@H]2OCO[C@H]3C2O[C@H](C[C@@H](COC)OC)C(C)(C)C3OC)O[C@H](C)[C@@H]1C (some centres not stated)
- GI50 [1]: 0.57 µM (active)
- GI50 [2]: 1.06 µM (active)
- GI50 [3]: 0.147 µM (active)

SMILES: O=C1CC(c2ccc(Cl)cc2)SC(N(c2ccccc2)c2ccccc2)=N1 (configuration not stated)
- EC50 [6]: > 53 µM (inactive)
- IC50 [7]: 13.8 µM (active)
- IC50 [5]: 14.9 µM (active)

SMILES: CCCCOC1CC(c2ccc(OCc3ccc(OC)cc3)c(OC)c2)N(C)O1 (configuration not stated)
- EC50 [6]: > 53 µM (inactive)
- IC50 [7]: 15.4 µM (active)
- IC50 [5]: > 20 µM (inactive)

SMILES: CC(=O)O[C@H]1CC[C@@]2(C)[C@H](CC[C@@H]3[C@@H]2CC[C@]2(C)[C@@H](c4ccc(=O)oc4)C[C@H]4O[C@]342)C1
- GI50 [1]: 40.9 µM (inactive)
- GI50 [2]: 0.426 µM (active)
- GI50 [3]: 11 µM (inactive)

SMILES: CCc1c(CNc2ccc(C(=O)NC(CC(=O)O)C(=O)O)cc2)ccc2nc(N)nc(N)c12 (configuration not stated)
- GI50 [1]: 0.0179 µM (active)
- GI50 [2]: < 0.0202 µM (active)
- GI50 [3]: < 0.0144 µM (active)
